Data as given in the NIST ThermoML archive (doi:10.1021/je060271a).

Conditions: 303.15 K, Liquid, Vibrating tube method

CCCCCC(=O)OCC(COC(=O)CCCCC)(COC(=O)CCCCC)COC(=O)CCCCC [pentaerythritol tetrahexanoate]
Conditions	mass density [kg/m3]
2603.5 kPa	990
2631.6 kPa	990
2649.5 kPa	990.1
2676.9 kPa	990
2699.1 kPa	990
2726.5 kPa	990
2749.6 kPa	990.2
2772.3 kPa	990.1
2795.2 kPa	990.1
2823.5 kPa	990.2
2846.9 kPa	990.2
2870.6 kPa	990.2
2899.1 kPa	990.1
2923.3 kPa	990.2
2948 kPa	990.2
2972.9 kPa	990.3
3001.9 kPa	990.2
3026.2 kPa	990.3
3050.9 kPa	990.3
3075.6 kPa	990.3
3105.6 kPa	990.3
3130.3 kPa	990.3
3156 kPa	990.4
3181.3 kPa	990.4
3212.3 kPa	990.4
3237.8 kPa	990.4
3263.7 kPa	990.4
3294.7 kPa	990.4
3320.9 kPa	990.4
3346.9 kPa	990.6
3378.1 kPa	990.5
3404.7 kPa	990.5
3430.9 kPa	990.6
3457.8 kPa	990.7
3490.4 kPa	990.6
3517.7 kPa	990.5
3545.6 kPa	990.5
3578.7 kPa	990.6
3606.3 kPa	990.7
3634.2 kPa	990.5
3662.6 kPa	990.7
3690.5 kPa	990.7
3724.1 kPa	990.7
3752.7 kPa	990.9
3781.8 kPa	990.7
3810.6 kPa	990.8
3844.5 kPa	990.8
3872.4 kPa	990.8
3901 kPa	990.8
3935 kPa	990.9
3963.4 kPa	990.9
3991.9 kPa	990.9
4026.4 kPa	990.9
4056 kPa	991
4084.6 kPa	991
4113.5 kPa	991
4146.8 kPa	991
4175 kPa	991.1
4876.2 kPa	991.5
4893.7 kPa	991.5
4923.8 kPa	991.5
4939.3 kPa	991.6
4955.2 kPa	991.5
4973.4 kPa	991.6
4988.8 kPa	991.5
5003.5 kPa	991.5
5021.5 kPa	991.7
5037.1 kPa	991.6
5052.1 kPa	991.7
5067.7 kPa	991.7
5086.4 kPa	991.5
5101.8 kPa	991.6
5117.7 kPa	991.7
